ChEMBL document CHEMBL4229487, “Cyclic analogue of S-benzylisothiourea that suppresses kynurenine production without inhibiting indoleamine 2,3-dioxygenase activity” (Bioorg Med Chem Lett, 2018)

What was measured:
[1] = molecular target: Indoleamine 2,3-dioxygenase 1 (Homo sapiens) (UniProt P14902); assay: Inhibition of recombinant human IDO at 10 uM using L-tryptophan as substrate after 60 mins relative to control
[2] = test system: A-431; assay: Inhibition of kynurenine production in IFNgamma-treated human A431 cells at 1 uM after 24 hrs in presence of tryptophan relative to control; format: functional; conditions: A-431, 24 h
[3] = test system: A-431; assay: Inhibition of kynurenine production in IFNgamma-treated human A431 cells after 24 hrs in presence of tryptophan; format: functional, cell-based; conditions: A-431, 24 h
[4] = test system: A-431; assay: Cytotoxicity against human A431 cells at 100 uM; format: cell-based; conditions: a-431, 100 µM
[5] = test system: A-431; assay: Inhibition of IFNgamma-induced IDO expression in human A431 cells after 24 hrs by Western blot method; format: functional, cell-based
[6] = test system: A-431; assay: Inhibition of IFNgamma-induced STAT1 expression in human A431 cells after 24 hrs by Western blot method; format: functional, cell-based
[7] = test system: A-431; assay: Cytotoxicity against human A431 cells; format: cell-based
[8] = test system: A-431; assay: Inhibition of kynurenine production in IFNgamma-treated human A431 cells at 10 uM after 24 hrs in presence of tryptophan relative to control; format: functional; conditions: A-431, 24 h

Sequence of Indoleamine 2,3-dioxygenase 1 (Homo sapiens) (P14902 whole entry, looked up): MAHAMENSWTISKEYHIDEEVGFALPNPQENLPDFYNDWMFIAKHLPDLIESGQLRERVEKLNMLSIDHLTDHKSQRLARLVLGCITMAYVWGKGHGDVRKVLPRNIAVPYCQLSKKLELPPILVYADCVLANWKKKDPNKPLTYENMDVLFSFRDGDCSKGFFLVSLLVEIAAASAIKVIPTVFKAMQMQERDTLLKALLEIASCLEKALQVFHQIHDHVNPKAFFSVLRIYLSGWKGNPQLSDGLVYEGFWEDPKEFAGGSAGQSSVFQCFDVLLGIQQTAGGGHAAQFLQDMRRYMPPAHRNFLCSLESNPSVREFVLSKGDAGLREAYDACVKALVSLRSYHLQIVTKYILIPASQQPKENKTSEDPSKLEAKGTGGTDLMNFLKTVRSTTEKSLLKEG

SMILES | inhibition [1] [%] | inhibition at 1 µM [2] [%] | other results
[O-][S+](Cc1ccccc1)c1ccccc1CSc1nc2cc(Cl)ccc2[nH]1 (stereo not drawn) | 11 | 30 | –
Clc1ccc2[nH]c(SCc3ccccc3Oc3ccccc3)nc2c1 | 30 | 39 | –
c1ccc(CCc2ccccc2CSC2=NCCS2)cc1 | 0 | 0 | –
c1ccc(CCc2ccccc2CSc2nccs2)cc1 | 31 | 7 | –
Clc1ccc2[nH]c(SCc3ccccc3C#Cc3ccccc3)nc2c1 | 52 | 6 | –
Clc1ccc2[nH]c(SCc3ccccc3OCc3ccccc3)nc2c1 | 3 | 30 | –
O=S(=O)(Cc1ccccc1)c1ccccc1CSc1nc2cc(Cl)ccc2[nH]1 | 24 | 1 | –
Clc1ccc2[nH]c(SCc3ccccc3/C=C\c3ccccc3)nc2c1 | 49 | – | IC50 [3]: 340 nM; Activity [4]: Non-Toxic
c1ccc(CCc2ccccc2CSC2=NCCN2)cc1 | 17 | 7 | –
Clc1ccc2[nH]c(SCc3ccccc3/C=C/c3ccccc3)nc2c1 | -6 | 15 | –
N=C(N)SCc1ccccc1 | – | – | inhibition at 10 µM [8]: 44%

Now from value to compound, other results behind:

inhibition [1] [%] | SMILES | inhibition at 1 µM [2] [%] | other results
19 | c1ccc(CCc2ccccc2CSc2ncc[nH]2)cc1 | 1 | –
9 | Clc1ccc2sc(SCc3ccccc3CCc3ccccc3)nc2c1 | -8 | –
19 | Clc1ccc2[nH]c(SCc3ccccc3CCCc3ccccc3)nc2c1 | 44 | –
19 | Clc1ccc2[nH]c(SCc3ccccc3SCc3ccccc3)nc2c1 | – | IC50 [3]: 450 nM; Activity [4]: Non-Toxic; inhibition [5]: Dose-dependent effect; inhibition [6]: Dose-dependent effect
43 | c1ccc(CCc2ccccc2CSc2nc3ccccc3[nH]2)cc1 | 43 | Activity [7]: Non-Toxic
46 | Clc1ccc2[nH]c(SCc3ccccc3Cc3ccccc3)nc2c1 | 13 | –
47 | Clc1ccc2[nH]c(SCc3ccccc3CCc3ccccc3)nc2c1 | 48 | Activity [7]: Non-Toxic
21 | Clc1ccc2oc(SCc3ccccc3CCc3ccccc3)nc2c1 | -18 | –
